Experimental data: ChEMBL document CHEMBL1141695, “Discovery of thieno[2,3-c]pyridines as potent COT inhibitors” (Bioorg Med Chem Lett, 2008)

Key:
[1] = target: T1, Mitogen-activated protein kinase kinase kinase 8 (Homo sapiens, UniProt P41279); assay: Inhibition of human recombinant COT by HTRF-based assay
[2] = target: Dual specificity mitogen-activated protein kinase kinase 1 (Homo sapiens, UniProt Q02750); assay: Inhibition of MEK1 by HTRF assay
[3] = Inhibition of ERK phosphorylation in LPS-stimulated mouse PEC by HTRF assay
[4] = target: T1, Mitogen-activated protein kinase kinase kinase 8; assay: Inhibition of COT by cell-based HTRF assay

Sequence of Dual specificity mitogen-activated protein kinase kinase 1 (Q02750 whole entry): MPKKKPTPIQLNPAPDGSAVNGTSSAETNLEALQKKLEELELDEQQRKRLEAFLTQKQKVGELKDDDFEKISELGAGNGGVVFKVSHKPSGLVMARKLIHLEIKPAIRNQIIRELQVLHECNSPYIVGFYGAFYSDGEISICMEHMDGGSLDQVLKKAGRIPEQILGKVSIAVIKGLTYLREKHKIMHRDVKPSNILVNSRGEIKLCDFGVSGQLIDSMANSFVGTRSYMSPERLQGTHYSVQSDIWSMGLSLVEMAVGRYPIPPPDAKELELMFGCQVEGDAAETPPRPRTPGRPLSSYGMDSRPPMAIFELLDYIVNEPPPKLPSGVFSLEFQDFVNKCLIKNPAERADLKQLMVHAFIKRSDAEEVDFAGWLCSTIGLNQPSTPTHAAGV
T1 sequence (P41279 whole entry): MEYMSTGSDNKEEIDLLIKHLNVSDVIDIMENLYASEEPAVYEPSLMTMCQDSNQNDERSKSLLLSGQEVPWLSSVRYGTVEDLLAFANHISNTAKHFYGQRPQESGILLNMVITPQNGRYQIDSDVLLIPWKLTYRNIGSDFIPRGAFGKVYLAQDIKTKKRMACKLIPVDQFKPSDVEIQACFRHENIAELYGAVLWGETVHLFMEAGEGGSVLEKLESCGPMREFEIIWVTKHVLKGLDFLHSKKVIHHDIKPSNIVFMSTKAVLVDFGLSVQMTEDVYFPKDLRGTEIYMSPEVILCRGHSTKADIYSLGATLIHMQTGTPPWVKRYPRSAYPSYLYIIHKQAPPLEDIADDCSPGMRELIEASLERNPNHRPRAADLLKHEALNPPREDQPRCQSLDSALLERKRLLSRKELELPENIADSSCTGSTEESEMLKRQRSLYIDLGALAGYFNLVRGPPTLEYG

Row | SMILES | IC50 [1] [µM] | IC50 [2] [µM] | IC50 [3] [µM] | IC50 [4] [µM]
1 | CN(C)C(=O)c1ccc(-c2ccc(Oc3cncc4sc(-c5nn[nH]n5)cc34)cc2)cc1 | 0.05 | 48 | > 50 | 
2 | FC(F)(F)c1ccc(-c2ccc(Oc3cncc4sc(-c5nn[nH]n5)cc34)cc2)cc1 | 0.28 | 1.8 | 1.7 | 0.56
3 | OCc1ccc(-c2ccc(Oc3cncc4sc(-c5nnn[nH]5)cc34)cc2)cc1 | 0.04 | 14 |  | 
4 | COc1cccc(-c2ccc(Oc3cncc4sc(-c5nnn[nH]5)cc34)cc2)c1 | 0.24 | 23 |  | 
5 | CC(=O)Nc1cc2c(Oc3ccc(I)cc3)cncc2s1 | > 50 |  |  | 
6 | O=c1nc(-c2cc3c(Oc4ccc(I)cc4)cncc3s2)[nH]o1 | 1.12 |  |  | 
7 | c1ccc(-c2cccc(Oc3cncc4sc(-c5nn[nH]n5)cc34)c2)cc1 | 1.7 |  |  | 
8 | COc1ccccc1-c1ccc(Oc2cncc3sc(-c4nnn[nH]4)cc23)cc1 | 0.32 | 21.8 |  | 
9 | Ic1ccc(Oc2cncc3sc(-c4nn[nH]n4)cc23)cc1 | 0.41 |  |  | 
10 | O=C(NO)c1cc2c(Oc3ccc(I)cc3)cncc2s1 | 0.54 |  |  | 
11 | Brc1ccc(Oc2cncc3sc(-c4nnn[nH]4)cc23)cc1 | 1.6 |  |  | 
12 | Clc1ccc(Oc2cncc3sc(-c4nnn[nH]4)cc23)cc1 | 0.71 |  |  | 
13 | O=C(O)c1cc2c(Oc3ccc(I)cc3)cncc2s1 | 0.94 |  |  | 
14 | c1ccc(Oc2cncc3sc(-c4nn[nH]n4)cc23)cc1 | 2.2 |  |  | 
15 | Nc1cc2c(Oc3ccc(I)cc3)cncc2s1 | > 50 |  |  | 
16 | Cc1ccc(Oc2cncc3sc(-c4nn[nH]n4)cc23)cc1 | 7.5 |  |  | 
17 | CC(C)(C)c1ccc(Oc2cncc3sc(-c4nn[nH]n4)cc23)cc1 | 0.61 |  |  | 

Results, then the molecule that gave them:

Row | IC50 [1] [µM] | IC50 [2] [µM] | IC50 [3] [µM] | IC50 [4] [µM] | SMILES
18 | 0.01 | 18 |  | 0.13 | NC(=O)c1ccc(-c2ccc(Oc3cncc4sc(-c5nn[nH]n5)cc34)cc2)cc1
19 | 0.15 | 1.5 | > 50 |  | Clc1ccccc1-c1ccc(Oc2cncc3sc(-c4nn[nH]n4)cc23)cc1
20 | 0.17 | 7.6 | 11.3 | 6.5 | Fc1ccc(-c2ccc(Oc3cncc4sc(-c5nn[nH]n5)cc34)cc2)cc1
21 | 0.23 | 1.5 | 1.1 |  | Nc1ccc(-c2ccc(Oc3cncc4sc(-c5nn[nH]n5)cc34)cc2)cc1
22 | 0.15 | 9.7 | 12 | 4.3 | c1ccc(-c2ccc(Oc3cncc4sc(-c5nn[nH]n5)cc34)cc2)cc1
23 | 0.13 | 49 |  |  | COc1ccc(-c2ccc(Oc3cncc4sc(-c5nn[nH]n5)cc34)cc2)cc1
24 | 0.31 | 21.2 | 47 |  | N#Cc1ccc(-c2ccc(Oc3cncc4sc(-c5nn[nH]n5)cc34)cc2)cc1
25 | 15 |  |  |  | c1ccc(-c2ccccc2Oc2cncc3sc(-c4nn[nH]n4)cc23)cc1
26 | 0.12 | 1.9 | > 50 |  | Clc1cccc(-c2ccc(Oc3cncc4sc(-c5nn[nH]n5)cc34)cc2)c1
27 | 0.09 | 2.4 | > 50 | 2.1 | Clc1ccc(-c2ccc(Oc3cncc4sc(-c5nn[nH]n5)cc34)cc2)cc1
